Experimental data reported in publication PMC2890073 (Immunogenetics, 2010).
Where no end group is shown, it is not given here.

What was measured:
HLA-B*3501 = HLA-B*3501 (Homo sapiens, UniProt P01889, A329T/A93T/A95T/C349S/D201E/D98Y/E176V/E187L/E204Q/E69T/I218V/K202T/L119I/Q94N/R155S/R180L/S121R/S35A/S48A/T118I/V127L/V306I/V36M/Y140S/Y91F); assay: HLA-B*3501 peptide binding assay
HLA-B*5301 = HLA-B*5301 (Homo sapiens, UniProt P01889, A329T/A93T/A95T/C349S/D201E/D98Y/E176V/E187L/E204Q/E69T/G107R/I218V/K202T/L105A/L119I/N104I/Q94N/R106L/R155S/R180L/S101N/S121R/S35A/S48A/T118I/V127L/V306I/V36M/Y140S/Y91F); assay: HLA-B*5301 peptide binding assay
HLA-B*0702 = HLA-B*0702 (Homo sapiens, UniProt P01889); assay: HLA-B*0702 peptide binding assay

HPDIVIYQY
IC50 (HLA-B*3501): 7.9 nM

CC(C)C[C@H](NC(=O)[C@@H]1CCCN1C(=O)[C@@H](N)Cc1ccc(O)cc1)C(=O)N[C@H](C(=O)N[C@@H](Cc1ccccc1)C(=O)NCC(=O)N[C@@H](Cc1c[nH]c2ccccc12)C(=O)N[C@@H](CS)C(=O)N[C@@H](Cc1ccccc1)C(=O)O)[C@@H](C)O
IC50 (HLA-B*5301): 9.5 nM

CC(C)C[C@H](NC(=O)[C@@H]1CCCN1C(=O)[C@@H](NC(=O)[C@H](CCC(N)=O)NC(=O)[C@@H]1CCCN1C(=O)[C@@H](NC(=O)[C@@H](NC(=O)[C@@H]1CCCN1C(=O)[C@@H](N)Cc1ccccc1)C(C)C)[C@@H](C)O)C(C)C)C(=O)O
IC50 (HLA-B*0702): 1 nM
